The test system of data set [1] is Aspergillus fumigatus 231. As to the kind of experiment: Antifungal microdilution broth MIC, A. fumigatus. The class given is cell-based. The note with it: Aspergillus fumigatus, 231; 48 h incubation; read-out: MIC AF 48 h.
Data set [2] deals with ESBL-positive Klebsiella pneumoniae J 14368/08.
Data set [3] has as its system Trichophyton interdigitale 445. Description: Antifungal microdilution broth MIC, T. interdigitale. Format: cell-based.
A further data set has as its system Candida krusei E28. As to the kind of experiment: Antifungal microdilution broth MIC, C. krusei. Format: cell-based. The note with it: Pichia kudriavzevii, E28; 48 h incubation; read-out: MIC CK 48 h. Background: Dilution methods test growth across graded concentrations, often in twofold steps.
The test system of data set [4] is Klebsiella pneumoniae D 11750/08.
The test system of another data set is Candida tropicalis 156. Description: Antifungal microdilution broth MIC, C. tropicalis. The class given is cell-based.
The subject of data set [5] is Candida albicans ATCC 44859. Description: Antifungal microdilution broth MIC, C. albicans. Format: cell-based.
The next data set deals with Candida glabrata 20/I. Description: Antifungal microdilution broth MIC, C. glabrata. Format: cell-based. The note with it: Nakaseomyces glabratus.
Data set [6] deals with Mycobacterium avium 330/88. As to the kind of experiment: In vitro antimycobacterial MIC, M. avium. Format: cell-based.
The test system of another data set is M. kansasii 6509/96. As to the kind of experiment: In vitro antimycobacterial MIC, M. kansasii clinical isolate. The class given is cell-based. The note with it: Mycobacterium kansasii.
For data set [7], the system named is Mycobacterium tuberculosis 331/88 (H37Rv). Description: In vitro antimycobacterial MIC, M. tuberculosis. Format: cell-based.
The subject of data set [8] is Mycobacterium kansasii 235/80. As to the kind of experiment: In vitro antimycobacterial MIC, M. kansasii 235/80. The class given is cell-based.
For data set [9], the system named is Lichtheimia corymbifera 272. As to the kind of experiment: Antifungal microdilution broth MIC, L. corymbifera. The class given is cell-based. The note with it: Lichtheimia corymbifera, 272; 48 h incubation; read-out: MIC LC 48 h.
In data set [10] the test system is Staphylococcus epidermidis H 6966/08. As to the kind of experiment: Antibacterial microdilution broth MIC, S. epidermidis. The note with it: Staphylococcus epidermidis, H6966/08; 48 h incubation; read-out: MIC SE 48 h. The class given is cell-based.
The subject of data set [11] is Pseudomonas aeruginosa CCM 1961. Description: Antibacterial microdilution broth MIC, P. aeruginosa. The class given is cell-based. The note with it: Pseudomonas aeruginosa, CCM1961; 48 h incubation; read-out: MIC PA 48 h.
For a further data set, the system named is Trichosporon asahii 1188. As to the kind of experiment: Antifungal microdilution broth MIC, T. asahii. The class given is cell-based.
For data set [12], the system named is Escherichia coli CCM 4517. Description: Antibacterial microdilution broth MIC, E. coli. The class given is cell-based. The note with it: Escherichia coli, CCM4517; 48 h incubation; read-out: MIC EC 48 h.
Data set [13] deals with Enterococcus faecalis J 14365/08. As to the kind of experiment: Antibacterial microdilution broth MIC, E. faecalis. Format: cell-based. The note with it: Enterococcus faecalis, J14365/08; 48 h incubation; read-out: MIC EF 48 h.
The test system of data set [14] is Staphylococcus aureus CCM 4516/08. As to the kind of experiment: Antibacterial microdilution broth MIC, S. aureus. The note with it: Staphylococcus aureus, CCM4516; 48 h incubation; read-out: MIC SA 48 h. Format: cell-based.
Where [15] appears, read: Trichophyton interdigitale, 445, 72 h incubation, read-out: MIC TI 72 h.
[16] abbreviates: Trichophyton interdigitale, 445, 120 h incubation, read-out: MIC TI 120 h.
The mark [17] stands for this setting: ATCC44859, 24 h, read-out: MIC CA 24 h.
Setting [18] is: ATCC44859, 48 h, read-out: MIC CA 48 h.
Where [19] appears, read: 330/88, 336 h, 14 d incubation, read-out: MIC M. avium 330/88 14 d.
Where [20] appears, read: 330/88, 504 h, 21 d incubation, read-out: MIC M. avium 330/88 21 d.
Where [21] appears, read: 6509/96, 168 h, 7 d incubation, read-out: MIC M. kansasii 6509/96 7 d.
[22] abbreviates: 6509/96, 336 h, 14 d incubation, read-out: MIC M. kansasii 6509/96 14 d.
The mark [23] stands for this setting: 6509/96, 504 h, 21 d incubation, read-out: MIC M. kansasii 6509/96 21 d.
The mark [24] stands for this setting: 336 h, 14 d incubation, read-out: MIC Mtb. 331/88 14 d.
Where [25] appears, read: 504 h, 21 d incubation, read-out: MIC Mtb. 331/88 21 d.
Where [26] appears, read: 235/80, 168 h, 7 d incubation, read-out: MIC M. kansasii 235/80 7 d.
Where [27] appears, read: 235/80, 336 h, 14 d incubation, read-out: MIC M. kansasii 235/80 14 d.
Where [28] appears, read: 235/80, 504 h, 21 d incubation, read-out: MIC M. kansasii 235/80 21 d.
Setting [29] is: Trichosporon asahii, 1188, 24 h, read-out: MIC TA 24 h.
Setting [30] is: Trichosporon asahii, 1188, 48 h, read-out: MIC TA 48 h.
Where [31] appears, read: Candida tropicalis, 156, 48 h incubation, read-out: MIC CT 48 h.

Each structure is given as a SMILES string. Values after ≈ are worked out from the molar mass of the structure shown. Like-named read-outs stand apart in the source and are kept apart here.

Turning to `O=S(=O)(Nc1ncccn1)c1ccc(N=Cc2cccc(Cl)c2O)cc1` [Compound 2l, 4-[(3-Chloro-2-hydroxybenzylidene)amino]-N-(pyrimidin-2-yl)benzenesulfonamide], the MIC in data set [1] came to 250 µM (≈ 97.2 µg/mL); in [3] (setting [15]), 31.2 µM (≈ 12.2 µg/mL); in data set [3] (setting [16]), 31.2 µM (≈ 12.2 µg/mL); with Candida krusei E28, 250 µM (≈ 97.2 µg/mL); with Candida tropicalis 156 (Candida tropicalis, 156, 24 h, read-out: MIC CT 24 h), 125 µM (≈ 48.6 µg/mL); in the data set with Candida tropicalis 156 (Candida tropicalis, 156, 48 h, read-out: MIC CT 48 h), 125 µM (≈ 48.6 µg/mL). Further, the MIC came to 62.5 µM (≈ 24.3 µg/mL) in [5] (setting [17]); 62.5 µM (≈ 24.3 µg/mL) in data set [5] (setting [18]); 125 µM (≈ 48.6 µg/mL) with Candida glabrata 20/I (24 h, read-out: MIC CG 24 h); 125 µM (≈ 48.6 µg/mL) in the data set with Candida glabrata 20/I (48 h, read-out: MIC CG 48 h); 125 µM (≈ 48.6 µg/mL) in [6] (setting [19]); 250 µM (≈ 97.2 µg/mL) in [6] (setting [20]). The MIC with M. kansasii 6509/96 (setting [21]) stood at 16 µM (≈ 6.22 µg/mL); with M. kansasii 6509/96 (setting [22]), 16 µM (≈ 6.22 µg/mL); in the data set on M. kansasii 6509/96 (setting [23]), 32 µM (≈ 12.4 µg/mL); in data set [7] (setting [24]), 32 µM (≈ 12.4 µg/mL); in [7] (setting [25]), 62.5 µM (≈ 24.3 µg/mL); in data set [8] (setting [26]) it was 16 µM (≈ 6.22 µg/mL). Besides, the MIC in data set [8] (setting [27]) was 32 µM (≈ 12.4 µg/mL); in [8] (setting [28]), 62.5 µM (≈ 24.3 µg/mL); in data set [9], greater than 500 µM; in data set [10], greater than 500 µM; in data set [11], greater than 500 µM; in the data set on Trichosporon asahii 1188 (setting [29]) it was 125 µM (≈ 48.6 µg/mL). The MIC in the data set with Trichosporon asahii 1188 (setting [30]) was 125 µM (≈ 48.6 µg/mL); in [12] it was greater than 500 µM; in [13], greater than 500 µM; in [14], greater than 500 µM. Further, in [2], the “MIC KP-E 24 h” value is given as greater than 500 µM. For the same molecule, the “MIC KP-E 48 h” value in [2] is greater than 500 µM. The “MIC KP 24 h” value in data set [4] is greater than 500 µM. Moreover, in [4], the “MIC KP 48 h” value is greater than 500 µM.
On to `OC(Cn1cncn1)(Cn1cncn1)c1ccc(F)cc1F` [FLU, fluconazole, reference compound], for which the MIC in data set [1] is greater than 500 µM; in [3] (setting [15]), 7.81 µM (≈ 2.39 µg/mL); in data set [3] (setting [16]), 125 µM (≈ 38.3 µg/mL); in the data set with Candida krusei E28, 250 µM (≈ 76.6 µg/mL); in the data set on Candida tropicalis 156 (setting [31]), greater than 500 µM; in data set [5] (ATCC44859, 48 h incubation, read-out: MIC CA 48 h) it was 0.24 µM (≈ 0.0735 µg/mL). The MIC in the data set with Candida glabrata 20/I (48 h incubation, read-out: MIC CG 48 h) was 500 µM (≈ 153 µg/mL); in [9], greater than 500 µM; in the data set on Trichosporon asahii 1188 (Trichosporon asahii, 1188, 48 h incubation, read-out: MIC TA 48 h), 500 µM (≈ 153 µg/mL).
In the case of `O=S(=O)(Nc1ncccn1)c1ccc(N=Cc2cc(Br)ccc2O)cc1` [Compound 2d, 4-[(5-Bromo-2-hydroxybenzylidene)amino]-N-(pyrimidin-2-yl)benzenesulfonamide], the MIC in data set [1] was 250 µM (≈ 108 µg/mL); in data set [3] (Trichophyton interdigitale, 445, 72 h, read-out: MIC TI 72 h), 62.5 µM (≈ 27.1 µg/mL); in [3] (Trichophyton interdigitale, 445, 120 h, read-out: MIC TI 120 h), 62.5 µM (≈ 27.1 µg/mL); in the data set on Candida krusei E28, 250 µM (≈ 108 µg/mL); with Candida tropicalis 156 (setting [31]) it was 250 µM (≈ 108 µg/mL); in [5] (setting [17]), 125 µM (≈ 54.2 µg/mL). Besides, the MIC in data set [5] (setting [18]) came out at 125 µM (≈ 54.2 µg/mL); with Candida glabrata 20/I (24 h, read-out: MIC CG 24 h), 62.5 µM (≈ 27.1 µg/mL); in the data set on Candida glabrata 20/I (48 h, read-out: MIC CG 48 h), 62.5 µM (≈ 27.1 µg/mL); in data set [6] (setting [19]), 125 µM (≈ 54.2 µg/mL); in [6] (setting [20]) it was 125 µM (≈ 54.2 µg/mL); with M. kansasii 6509/96 (setting [21]) it was 32 µM (≈ 13.9 µg/mL). Besides, the MIC in the data set on M. kansasii 6509/96 (setting [22]) came to 32 µM (≈ 13.9 µg/mL); in the data set on M. kansasii 6509/96 (setting [23]), 62.5 µM (≈ 27.1 µg/mL); in [7] (setting [24]), 16 µM (≈ 6.93 µg/mL); in data set [7] (setting [25]), 32 µM (≈ 13.9 µg/mL); in data set [8] (setting [26]) it was 32 µM (≈ 13.9 µg/mL); in data set [8] (setting [27]), 62.5 µM (≈ 27.1 µg/mL). Moreover, the MIC in [8] (setting [28]) was 62.5 µM (≈ 27.1 µg/mL); in [9], greater than 500 µM; in data set [10] it was 250 µM (≈ 108 µg/mL); in data set [11] it was 500 µM (≈ 217 µg/mL); in the data set with Trichosporon asahii 1188 (setting [29]) it was 62.5 µM (≈ 27.1 µg/mL); in the data set on Trichosporon asahii 1188 (setting [30]), 62.5 µM (≈ 27.1 µg/mL). The MIC was 500 µM (≈ 217 µg/mL) in [12], greater than 500 µM in data set [13] and 500 µM (≈ 217 µg/mL) in data set [14]. Besides, in data set [2], the “MIC KP-E 24 h” value is recorded as 500 µM (≈ 217 µg/mL). Besides, in [2], the “MIC KP-E 48 h” value is 500 µM (≈ 217 µg/mL). In data set [4], the “MIC KP 24 h” value was found to be 500 µM (≈ 217 µg/mL). In addition, the “MIC KP 48 h” value in [4] was determined as 500 µM (≈ 217 µg/mL).

Values taken from publication PMC6151383 (Molecules : A Journal of Synthetic Chemistry and Natural …, 2017).
